The source of these data is article PMC12042053, “Activation and Allostery in a Fungal SAMHD1 Hydrolase: An Evolutionary Blueprint for dNTP Catabolism” (JACS Au, 2025).

Series [1] deals with T1, Ri SAMHD1 (Rhizophagus irregularis, UniProt A0A015K8Z8).
T1 construct: gene RirG_017260; full length (no SAM domain), N-terminal His6-tag, pET28a(+), expressed in E. coli T7 Express in M9 medium with Fe or Mn; purified as monomer and tetramer; crystal model residues 11-451
As to the kind of experiment: EPR of mixed-valent diiron cofactor. As to conditions: M9-Fe protein 0.5 mM, ascorbate-reduced, 2.5 mM nucleotide, O2-free; active site. The format is binding.

The target of series [2] is SAMHD1 protein from Rhizophagus irregularis, wild type (Rhizophagus irregularis).
Series [3] has as its target T1, Ri SAMHD1. Briefly: X-ray crystal structure, […] Å. The format is binding. As to conditions: M9-Mn protein, excess Mn, 5 mM GTP; allosteric site at interface of three subunits; Ca ion bound.
Series [4] has as its target T1, Ri SAMHD1. Briefly: nucleotide-induced tetramerization, glutaraldehyde cross-linking and SDS-PAGE. The format is binding. The note with it: monomer, 2 μM, pH 6.5, allosteric.
The target in series [5] is T2, Ri SAMHD1 (Rhizophagus irregularis, UniProt A0A015K8Z8, R42A).
T2 construct: gene RirG_017260; full length (no SAM domain), N-terminal His6-tag, pET28a(+), expressed in E. coli T7 Express in M9 medium with Fe or Mn; purified as monomer and tetramer; crystal model residues 11-451
T2 sequence (A0A015K8Z8 entry or part of it R42A): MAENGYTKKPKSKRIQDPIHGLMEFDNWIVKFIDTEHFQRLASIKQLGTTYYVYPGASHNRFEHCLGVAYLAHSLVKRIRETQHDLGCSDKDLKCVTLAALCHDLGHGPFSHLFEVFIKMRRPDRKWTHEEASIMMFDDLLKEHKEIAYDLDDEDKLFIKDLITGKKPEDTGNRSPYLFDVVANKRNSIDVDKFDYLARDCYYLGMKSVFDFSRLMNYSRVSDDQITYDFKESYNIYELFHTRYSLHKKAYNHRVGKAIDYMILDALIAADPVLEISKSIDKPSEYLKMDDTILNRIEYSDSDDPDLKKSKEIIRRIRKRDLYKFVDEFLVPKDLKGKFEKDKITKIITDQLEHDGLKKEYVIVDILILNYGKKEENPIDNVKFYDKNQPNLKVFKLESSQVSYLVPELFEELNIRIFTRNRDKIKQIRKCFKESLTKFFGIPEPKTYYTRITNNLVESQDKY
The description is as above. The format is binding. The note with it: monomer, 2 μM, 1 mM Mn, pH 6.5; allosteric, cooperative.

In series [6] the target is T1, Ri SAMHD1. As to the kind of experiment: steady-state hydrolysis, HPLC […] nm. The format is biochemical. The note with it: M9-Fe tetramer, 0.25 μM, 1 mM Mn, 5 mM dithionite, O2-free, fit with substrate/product inhibition, suggested allosteric, second site.
Series [7] has as its target T3, Ri SAMHD1 (Rhizophagus irregularis, UniProt A0A015K8Z8, D34A).
T3 construct: gene RirG_017260; full length (no SAM domain), N-terminal His6-tag, pET28a(+), expressed in E. coli T7 Express in M9 medium with Fe or Mn; purified as monomer and tetramer; crystal model residues 11-451
As to the kind of experiment: nucleotide-induced tetramerization, glutaraldehyde cross-linking and SDS-PAGE. The format is binding. The note with it: monomer, 2 μM, 1 mM Mn, pH 6.5; allosteric, cooperative.

Substrate in the series “purified protein”: Nc1nc2c(ncn2[C@H]2C[C@H](O)[C@@H](COP(=O)(O)OP(=O)(O)OP(=O)(O)O)O2)c(=O)[nH]1
As to the kind of experiment: purified protein. The format is biochemical, Rhizophagus irregularis. As to conditions: M9-Fe tetramer, 0.25 μM, 1 mM Mn, 5 mM dithionite, O2-free; fit with substrate/product inhibition.

A word on the EC50: it is the concentration needed to bring the measured effect to its halfway point. Low values mean higher potency in that assay, high ones lower potency in that assay. As a reminder, the Km is the substrate concentration at which the rate is half of its maximum.

Bounds are passed on as bounds.

T3 sequence (A0A015K8Z8 entry or part of it D34A): as the sequence (A0A015K8Z8 entry or part of it R42A) above, with D34A, A42R counted along it

Take `Nc1ncnc2c1ncn2[C@H]1C[C@H](O)[C@@H](COP(=O)(O)OP(=O)(O)OP(=O)(O)O)O1` [dATP]: at Ri SAMHD1 [1], the “EPR of mixed-valent diiron cofactor” value is “Addition of nonguanine-containing dNTPs (dATP, dCTP, and dTTP) increased the signal rhombicity”.
For the molecule “SAMHD1 protein from Rhizophagus irregularis, wild type (enzyme)”, in series [2], the apparent dNTP hydrolysis rates of the monomeric form on addition of GTP is less than 2.4 fold.
`Nc1nc2c(ncn2[C@@H]2O[C@H](COP(=O)(O)OP(=O)(O)OP(=O)(O)O)[C@@H](O)[C@H]2O)c(=O)[nH]1` [GTP]: on Ri SAMHD1 [3], the “X-ray crystal structure, 2.27 Å” value is “only one nucleotide (GTP) is positioned within the interface of three subunits”. At Ri SAMHD1 [4] (Mn), this molecule came in with an EC50 of 31 ± 2 µM.
For the molecule `Nc1ccn([C@H]2C[C@H](O)[C@@H](COP(=O)(O)OP(=O)(O)OP(=O)(O)O)O2)c(=O)n1` [dCTP], the “EPR of mixed-valent diiron cofactor” value at Ri SAMHD1 [1] is “Addition of nonguanine-containing dNTPs (dATP, dCTP, and dTTP) increased the signal rhombicity”.
For `Nc1nc2c(ncn2[C@H]2C[C@H](O)[C@@H](COP(=O)(O)OP(=O)(O)OP(=O)(O)O)O2)c(=O)[nH]1` [dGTP], the EC50 came to 605 ± 9 µM on Ri SAMHD1 [5], 21 ± 3 µM at Ri SAMHD1 [4] (1 mM Mn) and 235 ± 5 µM on Ri SAMHD1 [7]. Besides, on Ri SAMHD1 [6], the “apparent KI” value was 301 ± 24 µM.
For `Cc1cn([C@H]2C[C@H](O)[C@@H](COP(=O)(O)OP(=O)(O)OP(=O)(O)O)O2)c(=O)[nH]c1=O` [dTTP], the “EPR of mixed-valent diiron cofactor” value at Ri SAMHD1 [1] is “Addition of nonguanine-containing dNTPs (dATP, dCTP, and dTTP) increased the signal rhombicity”.

B1: Ri SAMHD1 (Rhizophagus irregularis DAOM 197198w) (protein)
chain: MAENGYTKKPKSKRIQDPIHGLMEFDNWIVKFIDTEHFQRLRSIKQLGTTYYVYPGASHNRFEHCLGVAYLAHSLVKRIRETQHDLGCSDKDLKCVTLAALCHDLGHGPFSHLFEVFIKMRRPDRKWTHEEASIMMFDDLLKEHKEIAYDLDDEDKLFIKDLITGKKPEDTGNRSPYLFDVVANKRNSIDVDKFDYLARDCYYLGMKSVFDFSRLMNYSRVSDDQITYDFKESYNIYELFHTRYSLHKKAYNHRVGKAIDYMILDALIAADPVLEISKSIDKPSEYLKMDDTILNRIEYSDSDDPDLKKSKEIIRRIRKRDLYKFVDEFLVPKDLKGKFEKDKITKIITDQLEHDGLKKEYVIVDILILNYGKKEENPIDNVKFYDKNQPNLKVFKLESSQVSYLVPELFEELNIRIFTRNRDKIKQIRKCFKESLTKFFGIPEPKTYYTRITNNLVESQDKY
notes: full length (no SAM domain), N-terminal His6-tag, pET28a(+), expressed in E. coli T7 Express in M9 medium with Fe or Mn; purified as monomer and tetramer; crystal model residues 11-451
As to B1, in “purified protein”, the Km came out at 11 ± 3 µM.
